In the supplement of paper PMC11451515:

System: P12-Ichikawa
Experiment: cell viability relative to DMSO control; higher = less cytotoxic
Details: 48 h
In short: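 Viability is a per-plate percentage relative to DMSO wells, with cell-free wells as background. CellTiter-Glo One luminescence was read after 48 h at 37°C on 1536-well plates (5 μl) of NOMO1 or SEM (500 cells/well) or P12-Ichikawa (1000 cells/well) leukemia cells. The cells had been adapted for at least four passages in each medium and pin-dosed with library compounds in DMSO from 47 μM to 0.79 nM in 11 threefold steps.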

[1] = HPLM + 10% dialyzed FBS, 0.000781 µM
[2] = HPLM + 10% dialyzed FBS, 0.00234 µM
[3] = HPLM + 10% dialyzed FBS, 0.00702 µM
[4] = HPLM + 10% dialyzed FBS, 0.0211 µM
[5] = HPLM + 10% dialyzed FBS, 0.0632 µM
[6] = HPLM + 10% dialyzed FBS, 0.19 µM
[7] = HPLM + 10% dialyzed FBS, 0.569 µM
[8] = HPLM + 10% dialyzed FBS, 1.71 µM
[9] = HPLM + 10% dialyzed FBS, 5.12 µM
[10] = HPLM + 10% dialyzed FBS, 15.4 µM
[11] = HPLM + 10% dialyzed FBS, 46.1 µM
[12] = RPMI 5 mM glucose + 10% FBS, 0.000781 µM
[13] = RPMI 5 mM glucose + 10% FBS, 0.00234 µM
[14] = RPMI 5 mM glucose + 10% FBS, 0.00702 µM
[15] = RPMI 5 mM glucose + 10% FBS, 0.0211 µM
[16] = RPMI 5 mM glucose + 10% FBS, 0.0632 µM
[17] = RPMI 5 mM glucose + 10% FBS, 0.19 µM
[18] = RPMI 5 mM glucose + 10% FBS, 0.569 µM
[19] = RPMI 5 mM glucose + 10% FBS, 1.71 µM
[20] = RPMI 5 mM glucose + 10% FBS, 5.12 µM
[21] = RPMI 5 mM glucose + 10% FBS, 15.4 µM
[22] = RPMI 5 mM glucose + 10% FBS, 46.1 µM
[23] = RPMI 5 mM glucose + 10% dialyzed FBS, 0.000781 µM
[24] = RPMI 5 mM glucose + 10% dialyzed FBS, 0.00234 µM
[25] = RPMI 5 mM glucose + 10% dialyzed FBS, 0.00702 µM
[26] = RPMI 5 mM glucose + 10% dialyzed FBS, 0.0211 µM
[27] = RPMI 5 mM glucose + 10% dialyzed FBS, 0.0632 µM
[28] = RPMI 5 mM glucose + 10% dialyzed FBS, 0.19 µM
[29] = RPMI 5 mM glucose + 10% dialyzed FBS, 0.569 µM
[30] = RPMI 5 mM glucose + 10% dialyzed FBS, 1.71 µM
[31] = RPMI 5 mM glucose + 10% dialyzed FBS, 5.12 µM
[32] = RPMI 5 mM glucose + 10% dialyzed FBS, 15.4 µM
[33] = RPMI 5 mM glucose + 10% dialyzed FBS, 46.1 µM

| SMILES | cell viability [1] [%] | cell viability [2] [%] | cell viability [3] [%] | cell viability [4] [%] | cell viability [5] [%] | cell viability [6] [%] | cell viability [7] [%] | cell viability [8] [%] | cell viability [9] [%] | cell viability [10] [%] | cell viability [11] [%] | cell viability [12] [%] | cell viability [13] [%] | cell viability [14] [%] | cell viability [15] [%] | cell viability [16] [%] | cell viability [17] [%] | cell viability [18] [%] | cell viability [19] [%] | cell viability [20] [%] | cell viability [21] [%] | cell viability [22] [%] | cell viability [23] [%] | cell viability [24] [%] | cell viability [25] [%] | cell viability [26] [%] | cell viability [27] [%] | cell viability [28] [%] | cell viability [29] [%] | cell viability [30] [%] | cell viability [31] [%] | cell viability [32] [%] | cell viability [33] [%] |
| --- | --- | --- | --- | --- | --- | --- | --- | --- | --- | --- | --- | --- | --- | --- | --- | --- | --- | --- | --- | --- | --- | --- | --- | --- | --- | --- | --- | --- | --- | --- | --- | --- | --- |
| OC[C@H]1OC(O)C[C@@H](O)[C@@H]1O (some centres not stated) | 122 | 124 | 114 | 118 | 121 | 120 | 115 | 119 | 121 | 118 | 107 | 119 | 122 | 124 | 115 | 134 | 119 | 131 | 131 | 120 | 116 | 112 | 107 | 125 | 119 | 117 | 116 | 116 | 119 | 123 | 124 | 122 | 110 |
| CC[C@H](C)C(=O)O[C@H]1C[C@@H](C)\C=C2\C=C/[C@H](C)[C@H](CC[C@@H]3C[C@@H](O)CC(=O)O3)[C@@H]12 | 91.8 | 94.1 | 93.3 | 91.4 | 92.1 | 87.7 | 97.1 | 91.7 | 89.3 | 64.5 | 46.8 | 76.3 | 90.1 | 87.6 | 89.1 | 84.5 | 82.3 | 89.6 | 84.9 | 83.1 | 44.1 | 24 | 80 | 89.8 | 89.5 | 85.5 | 94.6 | 88.3 | 84.4 | 77.9 | 77.4 | 54.8 | 29.7 |
| COCC(=O)NC/C=C/c1ccc2ncnc(Nc3ccc(Oc4ccc(C)nc4)c(C)c3)c2c1 | 99.6 | 99.3 | 101 | 107 | 101 | 92.3 | 103 | 98.6 | 95.7 | 93.1 | 64.5 | 91.7 | 112 | 106 | 105 | 105 | 100 | 91.5 | 101 | 81.6 | 77.2 | 43.1 | 102 | 109 | 115 | 113 | 105 | 99 | 97.9 | 101 | 88 | 79.7 | 51.5 |
| Cc1cccc(-c2[nH]c(C(C)(C)C)nc2-c2ccc3nccnc3c2)n1 | 120 | 124 | 124 | 126 | 125 | 120 | 118 | 110 | 112 | 112 | 48 | 122 | 122 | 115 | 116 | 124 | 121 | 108 | 119 | 106 | 106 | 81.4 | – | – | – | – | – | – | – | – | – | – | – |
| CC(C)(C)NCC(O)c1ccc(O)c(CO)c1 (configuration not stated) | 117 | 115 | 114 | 105 | 119 | 121 | 110 | 97.8 | 90.5 | 86.5 | 80 | 101 | 116 | 121 | 114 | 111 | 113 | 103 | 103 | 84.4 | 71.4 | 68.3 | 94.9 | 108 | 109 | 106 | 105 | 109 | 102 | 110 | 80.8 | 73.3 | 68.4 |
| CN(C)CCc1c[nH]c2ccc(Cn3cncn3)cc12 | 96.3 | 95 | 107 | 101 | 107 | 97 | 101 | 22.8 | 6.71 | 7.05 | 6.29 | 92 | 101 | 91.4 | 105 | 105 | 69.3 | 91.1 | 30.9 | 8.08 | 6.52 | 4.97 | 93.7 | 89.5 | 88.3 | 92.4 | 97.3 | 68.3 | 76.5 | 22.3 | 7.34 | 6.02 | 5.62 |
| COC(=O)[C@H](Cc1ccccc1)NC(=O)[C@@H](N)CC(=O)O | 112 | 119 | 120 | 115 | 119 | 108 | 112 | 112 | 106 | 101 | 100 | 110 | 110 | 113 | 119 | 115 | 125 | 107 | 109 | 102 | 102 | 108 | 114 | 109 | 125 | 112 | 120 | 110 | 112 | 110 | 107 | 104 | 101 |
| CC(C)C[C@H](CC(=O)O)C(=O)N[C@@H](Cc1c[nH]c2ccccc12)C(=O)N[C@@H](C)c1ccccc1 | 95.1 | 102 | 108 | 108 | 112 | 111 | 83.6 | 107 | 73.4 | 42.1 | 22.4 | 89 | 96 | 111 | 101 | 94.2 | 106 | 83.7 | 106 | 72.6 | 53.4 | 32.9 | 103 | 111 | 101 | 119 | 107 | 108 | 103 | 107 | 74.8 | 67.8 | 28.2 |
| Cc1nnc(C(=O)NC(C)(C)c2nc(C(=O)NCc3ccc(F)cc3)c(O)c(=O)n2C)o1 | 114 | 110 | 104 | 108 | 109 | 103 | 109 | 90.9 | 102 | 102 | 107 | 107 | 110 | 99.3 | 106 | 102 | 104 | 107 | 95.1 | 103 | 103 | 90.7 | 97.8 | 100 | 104 | 103 | 98.7 | 95.5 | 107 | 94.4 | 95.2 | 91.5 | 92.9 |
| O=c1oc2cc(O)ccc2s1 | 114 | 115 | 111 | 115 | 116 | 117 | 115 | 110 | 108 | 106 | 104 | 115 | 131 | 95.8 | 116 | 117 | 116 | 117 | 107 | 108 | 107 | 96.8 | 104 | 126 | 109 | 112 | 111 | 116 | 114 | 104 | 100 | 103 | 85.9 |
| CC[C@H](CO)Nc1nc(NCc2ccccc2)c2ncn(C(C)C)c2n1 | 85.4 | 93.9 | 95.1 | 91.7 | 94.8 | 95.1 | 93.1 | 86.4 | 91.6 | 85.2 | 79.5 | 91.2 | 93.1 | 93.2 | 92.9 | 98.1 | 95.2 | 95.9 | 82.8 | 86.4 | 77.6 | 78.2 | 91.2 | 94.4 | 95.5 | 83.9 | 89.5 | 94.3 | 92 | 88.7 | 87.3 | 86.6 | 82 |
| C=C1CCC2[C@](C)(CO)C(O)CC[C@]2(C)C1C/C=C1/C(=O)OCC1O (some centres not stated) | 122 | 124 | 122 | 114 | 121 | 117 | 104 | 103 | 106 | 114 | 115 | 115 | 112 | 118 | 106 | 114 | 110 | 108 | 109 | 107 | 98.6 | 107 | 120 | 115 | 124 | 115 | 116 | 111 | 109 | 103 | 98.7 | 110 | 106 |
| NC(=O)N1CCC(CC(=O)N2CCC([C@H]3c4ncc(Br)cc4CCc4cc(Cl)cc(Br)c43)CC2)CC1 | 107 | 116 | 114 | 114 | 114 | 108 | 96.9 | 95.2 | 78.6 | 71.9 | 52.9 | 107 | 104 | 125 | 121 | 117 | 106 | 87.6 | 85.9 | 75.4 | 62.9 | 42.5 | 108 | 108 | 118 | 112 | 109 | 110 | 94.6 | 90 | 78.9 | 69.7 | 42.2 |
| CN(C)C(=O)[C@H](O)[C@H](Cc1ccccc1)NC(=O)c1cc2cc(Cl)ccc2[nH]1 | 98.8 | 110 | 111 | 114 | 119 | 115 | 122 | 127 | 119 | 80.3 | 43.4 | 95.3 | 112 | 109 | 117 | 119 | 130 | 130 | 130 | 113 | 68.6 | 51.5 | 99.5 | 118 | 118 | 119 | 121 | 131 | 125 | 133 | 127 | 94 | 70 |
| O=C1\C=C(OC2=C(C=CC=C12)C3=CC=CC4=C3SC5=C4C=CC=C5)\N6CCOCC6 | 119 | 125 | 127 | 129 | 137 | 130 | 130 | 131 | 129 | 132 | 121 | – | – | – | – | – | – | – | – | – | – | – | – | – | – | – | – | – | – | – | – | – | – |
